# Measurements: patent publication US8648116B2, “Derivatives of N-(arylamino) sulfonamides including polymorphs as inhibitors of MEK as well as compositions, methods of use and methods for preparing the same” (Ardea Biosciences, Inc., priority 2005, dated 2014)
# Like-named read-outs stand apart in the source and are kept apart here. Marks after values point to notes of the source that are not given here.
# What was measured:
# A431 epidermoid tumors = assay: Anti-tumor xenograft activity, TGI and TGD (Example 94); type: in vivo, nu/nu mice
# Protocol: (§1) Human tumors were implanted in nu/nu mice. Compound A was administered orally for 14 days once tumors were approximately 100 mm^3 in size. Tumor growth inhibition (TGI) was determined after 14 days of treatment as the reduction in the size of tumors in treated groups versus vehicle controls. The time to endpoint (TTE) was calculated as the time for the tumor to reach the specified endpoint volume or the last day of the study, whichever came first. Treatment outcome was determined from percent tumor growth delay (% TGD), defined as the percent increase in median TTE of treated versus vehicle-treated control mice. Animals were also monitored for regression responses. Levels of pERK in tumors and brain were determined by Western blots and correlated with plasma levels of Compound A for the pharmacodynamic/pharmacokinetic study. A number of tumor models were evaluated with different doses and dosing regimens. […] The effect of different dosing regimens was evaluated in A375 xenografts.
# (§2) Female nu/nu mice were implanted with A375 Melanoma, Colo205 Colon Tumor, A431 Epidermoid Tumor or HT-29 Colon Tumor cells, which were allowed to grow to 100-200 mm^3. Compound A or vehicle was administered orally (25 mg/kg, 50 mg/kg or 100 mg/kg), once a day, for 14 days.
# (§3) Tumor Growth Inhibition for the groups treated with 25 mg/kg Compound A were calculated for the indicated tumor xenografts. Tumor Growth Inhibition was measured at the end of once daily dosing for 14 days and calculated according to: […]
# [1] = system: Colo205 colon cancer tumors; assay: as above; type: in vivo, nu/nu mice
# Protocol: as §1, §2, §3
# [2] = Concentration-time profiles after a single dose of capsules; parameters: species or system human cancer patients; details: human, in vivo, oral, capsules of example 95A
# HT29 colon cancer tumors = assay: Anti-tumor xenograft activity, TGI (Example 94); type: in vivo, nu/nu mice; details: 25 mg/kg QD oral, 14 days
# Protocol: as §1
# Female nu/nu mice were implanted with A375 Melanoma, Colo205 Colon Tumor, A431 Epidermoid Tumor or HT-29 Colon Tumor cells, which were allowed to grow to 100-200 mm^3. […]
# as §3
# [3] = Pharmacokinetic parameters in Balb/c mice (Example 94D); type: in vivo
# Protocol: Pharmacokinetic parameters were obtained from dosing Balb/c mice with 25 mg/kg Compound A and extrapolating values for the lower dose groups and shown in the table below.
# [4] = system: select human cancer cells; assay: Growth inhibition in proliferation assays, summary over cell lines; type: cell-based
# SK Mel28 melanoma cells = assay: Anchorage-dependent growth inhibition (ATP content, 48 hr); type: cell-based, human; details: SK Mel 28, separate study
# [5] = system: gastric adenocarcinoma AGS cells; assay: Cell proliferation assay (CellTiterGlo, 3 days and 6 days); type: cell-based, human; details: 3 days and 6 days exposure
# Protocol: Human gastric adenocarcinoma AGS cells were obtained from ATCC (Manassas, Va.). […] For cell proliferation experiments, cells were plated in white 96-well plates with clear bases at 3000 cells/100 μl/well. […] The ATP level for each dose was determined in triplicate using independent wells.
# [6] = Pharmacokinetics in healthy volunteers following multiple doses; details: 20 mg
# [7] = system: BxPC3 pancreatic adenocarcinoma cells; assay: Anchorage-dependent growth inhibition (ATP content, 48 hr); type: cell-based, human; details: BxPC3, 48 hr
# [8] = system: MDA-MB231 breast adenocarcinoma cells; assay: as above; type: cell-based, human
# [9] = 2.5 mg/kg, extrapolated from 25 mg/kg in Balb/c mice
# [10] = 5 mg/kg, extrapolated from 25 mg/kg in Balb/c mice
# [11] = 10 mg/kg, extrapolated from 25 mg/kg in Balb/c mice
smiles,measurement,setting,value
COc1cc(F)c(F)c(Nc2ccc(I)cc2F)c1NS(=O)(=O)C1(C[C@H](O)CO)CC1 [Compound A],% TGI,"A431 epidermoid tumors; A431 Epidermoid xenograft, 25 mg/kg QD oral, 14 days",67%
same,"% TGD, significance","A431 epidermoid tumors; A431 epidermoid tumors, 25 or 50 mg/kg once daily (QD)",statistically significant
same,% TGI,"[1]; Colo205 Colon xenograft, 25 mg/kg QD oral, 14 days, range from 2 separate studies",70-123** %
same,"% TGD, significance","[1]; Colo205 colon cancer tumors, 25 or 50 mg/kg once daily (QD)",statistically significant
same,Cmax,"[2]; 2 mg, 2 mg dose, Day 35",0.202 ng/mL
same,Tmax,"[2]; 2 mg, 2 mg dose, Day 35",2 h
same,Tmax,"[2]; 4 mg, 4 mg dose, Day 1",1.5 h
same,Cmax,"[2]; 4 mg, 4 mg dose, Day 35",0.544 ng/mL
same,Tmax,"[2]; 4 mg, 4 mg dose, Day 35",1 h
same,Cmax,"[2]; 10 mg, 10 mg dose, Day 35",1.57 ng/mL
same,Cmax,"[2]; 20 mg, 20 mg dose, Day 35",3.28 ng/mL
same,AUC,"[2]; 2 mg dose, Day 35",2.07 ng·h/mL
same,AUC,"[2]; 4 mg dose, Day 35",5.12 ng·h/mL
same,AUC,"[2]; 10 mg dose, Day 35",14.3 ng·h/mL
same,AUC,"[2]; 20 mg dose, Day 35",29.5 ng·h/mL
same,% TGI,HT29 colon cancer tumors,56%
same,AUC,[3]; [9],5.5 µg·h/mL
same,Cmax,[3]; [9],0.99 µg/mL
same,Cmin,[3]; [9],3 ng/mL
same,AUC,[3]; [10],11.0 µg·h/mL
same,Cmax,[3]; [10],1.97 µg/mL
same,Cmin,[3]; [10],6 ng/mL
same,AUC,[3]; [11],22.0 µg·h/mL
same,Cmax,[3]; [11],3.94 µg/mL
same,Cmin,[3]; [11],12 ng/mL
same,Cmin,"[3]; 25 mg/kg, Balb/c mice",29 ng/mL
same,AUC,"[3]; mouse, in vivo, oral, 25 mg/kg, Balb/c mice, read-out: AUC",55 µg·h/mL
same,Cmax,"[3]; mouse, in vivo, oral, 25 mg/kg, Balb/c mice, read-out: Cmax",9.85 µg/mL
COc1cc(F)c(F)c(Nc2ccc(I)cc2F)c1NS(=O)(=O)C1(C[C@H](O)CO)CC1,GI50,"[4]; mean over A375, Colo205, HT29 and A431, 48 hr, ATP content, read-out: growth inhibition, mean potency (GI50)",79 nM
same,GI50,"[4]; select human cancer cells, range, read-out: GI50 values, anchorage dependent proliferation assays",70 to 89 nM
same,GI50,"[4]; select human cancer cells, read-out: GI50, anchorage dependent proliferation assays",51 nM
same,GI50,"[4]; select human cancer cells, read-out: GI50, anchorage independent proliferation assays",22 nM
same,GI50,SK Mel28 melanoma cells,105 nM
same,proliferation of AGS cell line,[5],inhibits the proliferation
same,Rac AUCτ (accumulation index),[6],1.24
same,GI50,[7],> 1000 nM
same,GI50,"[8]; MDA (MDA-MB231), 48 hr, ATP content",> 1000 nM
same,growth arrest in 2-dimensional anchorage dependent assays,[8]; MDA-MB231 cells,do not show
